The values below are quoted from earlier work in publication PMC6915728 (Nature Communications, 2019).

In the data set the test system is bacterial species in which the gene showed activity. The note with it: cited from earlier work.
Where [1] appears, read: Staphylococcus aureus, Staphylococcus xylosus, ref http://www.jbc.org/content/274/13/8405.full.pdf.
[2] abbreviates: Staphylococcus aureus, ref https://www.ncbi.nlm.nih.gov/pubmed/14707093.
[3] abbreviates: Salmonella typhimurium, Escherichia coli, ref https://www.ncbi.nlm.nih.gov/pmc/articles/PMC3037666/, https://www.ncbi.nlm.nih.gov/pmc/articles/PMC4808223/.
The mark [4] stands for this setting: Salmonella typhimurium, ref https://www.ncbi.nlm.nih.gov/pmc/articles/PMC3037666/.
Where [5] appears, read: Neisseria meningitidis, Neisseria gonorrhoeae, ref http://www.ncbi.nlm.nih.gov/pmc/articles/PMC1196002/.
[6] abbreviates: Neisseria meningitidis, ref https://www.ncbi.nlm.nih.gov/pmc/articles/PMC1196002/.
[7] abbreviates: Staphylococcus aureus, SalmonellaTyphimurium, ref http://ac.els-cdn.com/S0022202X15369608/1-s2.0-S0022202X15369608-main.pdf?_tid=6fa51c80-693e-11e6-b18c-00000aacb362&acdnat=1471962936_8118358d97a056d7d78b5e8b4ca8d03b, https://www.sciencedirect.com/science/article/pii/S0928824401002917.
[8] abbreviates: Staphylococcus aureus, ref http://onlinelibrary.wiley.com/doi/10.1111/j.1365-2958.2007.05986.x/epdf.
Where [9] appears, read: Salmonella enterica serovar Typhimurium, ref http://www.microbiologyresearch.org/docserver/fulltext/micro/154/2/666.pdf?expires=1487718158&id=id&accname=guest&checksum=D8B884D02A8B2A8619216A48E0826377.
Setting [10] is: Salmonella typhimurium, Escherichia coli, ref https://www.ncbi.nlm.nih.gov/pmc/articles/PMC3037666/, https://www.ncbi.nlm.nih.gov/pmc/articles/PMC3837802/pdf/zam7770.pdf.
Setting [11] is: Klebsiella pneumoniae, ref http://iai.asm.org/content/72/12/7107.full.pdf+html.
The mark [12] stands for this setting: Klebsiella pneumoniae, ref http://www.ncbi.nlm.nih.gov/pmc/articles/PMC2798511/.

Read-outs that look alike come from different tables or passages of the source. Ends that are not written are not given here.

On to Human alfa-defensin3, for which the “Gene that modulates bacterial susceptibility to the AMP” value under setting [1] was “dltA (dlt operon)”.

GIGKFLHSAKKFGKAFVGEIMNS [Magainin 2]: the “Gene that modulates bacterial susceptibility to the AMP” value runs as follows: (Salmonella enterica serovar Typhimurium, ref http://onlinelibrary.wiley.com/doi/10.1111/j.1365-2958.2004.04107.x/full) “yqjA”; (Salmonella enterica serovar Typhimurium, ref http://www.jbc.org/content/279/37/38618.long, https://onlinelibrary.wiley.com/doi/epdf/10.1111/j.1365-2958.2005.04553.x) “slyA”; (Salmonella enterica serovar Typhimurium, ref http://www.jbc.org/content/279/37/38618.long) “ugtL”.

For the compound CRAMP, the “Gene that modulates bacterial susceptibility to the AMP” value is “pgtE”.

On to Human alpha-defensin-1, for which, under setting [2], the “Gene that modulates bacterial susceptibility to the AMP” value was “sak”.

Take mellitin: the “Gene that modulates bacterial susceptibility to the AMP” value is reported as “amiA, amiC” under setting [3] and “tatA” under setting [4].

Take “LL-37 (LLGDFFRKSKEKIGKEFKRIVQRIKDFLRNLVPRTES; Antibacterial peptide LL-37; UniProt P49913 134-170, looked up)”: the “Gene that modulates bacterial susceptibility to the AMP” value is given as “mtrC, mtrD, mtrE” under setting [5]; “lptA” under setting [6]; “hemB” under setting [7]; “icaA(ica operon)” (Staphylococcus epidermidis, ref http://onlinelibrary.wiley.com/doi/10.1046/j.1462-5822.2004.00367.x/epdf).

As to colistin, the “Gene that modulates bacterial susceptibility to the AMP” value (Acinetobacter baumannii, ref http://aac.asm.org/content/54/12/4971.full.pdf+html) is recorded as “lpxA” and the “Gene that modulates bacterial susceptibility to the AMP” value under setting [7] is “hemB”.

Consider protegrin, for which, under “Salmonella typhimurium, Salmonella typhi, ref http://www.sciencedirect.com/science/article/pii/S009286740081750X”, the “Gene that modulates bacterial susceptibility to the AMP” value is reported as “pagP”.

Take “Human beta-defensin3 (GIINTLQKYYCRVRGGRCAVLSCLPKEEQIGKCSTRGRKCCRRKK; ends and bridges not checked; cysteine pairing not given here; UniProt P81534 23-67, looked up)”: the “Gene that modulates bacterial susceptibility to the AMP” value under setting [8] is listed as “apsS”.

Turning to `CC[C@H](C)[C@H](NC(=O)CN)C(=O)NCC(=O)N[C@@H](C)C(=O)N[C@H](C(=O)N[C@@H](CC(C)C)C(=O)N[C@@H](CCCCN)C(=O)N[C@H](C(=O)N[C@@H](CC(C)C)C(=O)N[C@H](C(=O)N[C@H](C(=O)NCC(=O)N[C@@H](CC(C)C)C(=O)N1CCC[C@H]1C(=O)N[C@@H](C)C(=O)N[C@@H](CC(C)C)C(=O)N[C@H](C(=O)N[C@@H](CO)C(=O)N[C@@H](Cc1c[nH]c2ccccc12)C(=O)N[C@H](C(=O)N[C@@H](CCCCN)C(=O)N[C@@H](CCCNC(=N)N)C(=O)N[C@@H](CCCCN)C(=O)N[C@@H](CCCNC(=N)N)C(=O)N[C@@H](CCC(N)=O)C(=O)N[C@@H](CCC(N)=O)C(N)=O)[C@@H](C)CC)[C@@H](C)CC)[C@@H](C)O)[C@@H](C)O)C(C)C)C(C)C` [melittin], the “Gene that modulates bacterial susceptibility to the AMP” value runs as follows: under setting [9], “yejA”; under setting [10], “cpxA (CpxA/CpxR)”.

With lactoferrin, the “Gene that modulates bacterial susceptibility to the AMP” value under setting [11] is “cps”.

Turning to lactoferricin B, the “Gene that modulates bacterial susceptibility to the AMP” value under setting [7] is reported as “hemB”.

Regarding “Human alpha-defensin-2 (CYCRIPACIAGERRYGTCIYQGRLWAFCC; ends and bridges not checked; cysteine pairing not given here; UniProt P59665 66-94, looked up)”, under setting [2], the “Gene that modulates bacterial susceptibility to the AMP” value was “sak”.

With magainin 2, the “Gene that modulates bacterial susceptibility to the AMP” value reads like this: under setting [10], “cpxA (CpxA/CpxR)”; under setting [3], “amiA, amiC”; under setting [4], “tatA”.

With Nisin, the “Gene that modulates bacterial susceptibility to the AMP” value is listed as “psdA (yvcR)” (Bacillus subtilis, gene psdA (yvcR), […]); “psdB (yvcS)” (Bacillus subtilis, gene psdB (yvcS), […]); “nisE, nisF, nisG” (Lactococcus lactis, genes nisE, nisF, nisG, […]); “ysaB, ysaC” (Lactococcus lactis, genes ysaB, ysaC, […]); “anrA (lmo2114)” (Listeria monocytogenes, […]); “braA,braB” (Staphylococcus aureus, […]).

Take “human beta-defensin 3 (GIINTLQKYYCRVRGGRCAVLSCLPKEEQIGKCSTRGRKCCRRKK; ends and bridges not checked; cysteine pairing not given here; UniProt P81534 23-67, looked up)”: the “Gene that modulates bacterial susceptibility to the AMP” value under setting [7] is recorded as “hemB”.

As for Colistin, the “Gene that modulates bacterial susceptibility to the AMP” value runs as follows: (Acinetobacter baumannii, ref https://mbio.asm.org/content/4/3/e00021-13) “pmrB”; (Escherichia coli, Klebsiella pneumoniae, Pseudomonas aeruginosa, Kluyvera ascorbata, ref http://www.ncbi.nlm.nih.gov/pubmed/26603172, http://ac.els-cdn.com/S1473309915005332/1-s2.0-S1473309915005332-main.pdf?_tid=16a7f944-6944-11e6-8a9d-00000aab0f02&acdnat=1471965364_7f481026d1a49114e23adef4a6b4d1a9, https://www.ncbi.nlm.nih.gov/pmc/articles/PMC5119035/) “mcr1”; (Pseudomonas aeruginosa, ref https://onlinelibrary.wiley.com/doi/epdf/10.1111/j.1365-2958.2008.06152.x) “mexA, mexB”.

Regarding Magainin II, the “Gene that modulates bacterial susceptibility to the AMP” value under setting [1] is reported as “dltA (dlt operon)”.

With polymyxin E, under “Bordetella pertussis, ref http://www.ncbi.nlm.nih.gov/pmc/articles/PMC4136009/”, the “Gene that modulates bacterial susceptibility to the AMP” value is “lgmA, IgmB, IgmC”.

Take bacitracin: the “Gene that modulates bacterial susceptibility to the AMP” value is, setting by setting: (Listeria monocytogenes, ref https://www.ncbi.nlm.nih.gov/pmc/articles/PMC2944581/) “anrA (lmo2114)”; (Staphylococcus aureus, ref https://www.ncbi.nlm.nih.gov/pmc/articles/PMC3718698/) “braA,braB”.

As for “protegrin-1 (RGGRLCYCRRRFCVCVGR; ends and bridges not checked; cysteine pairing not given here; UniProt P32194 131-148, looked up)”, the “Gene that modulates bacterial susceptibility to the AMP” value is on record as “pgtE”. For the same compound, the “Gene that modulates bacterial susceptibility to the AMP” value under setting [5] is “mtrC, mtrD, mtrE”. Further, under setting [6], the “Gene that modulates bacterial susceptibility to the AMP” value was “lptA”.

With “human beta-defensin-1 (DHYNCVSSGGQCLYSACPIFTKIQGTCYRGKAKCCK; ends and bridges not checked; cysteine pairing not given here; UniProt P60022 33-68, looked up)”, the “Gene that modulates bacterial susceptibility to the AMP” value runs as follows: (Burkholderia cenocepacia, ref http://www.microbiologyresearch.org/docserver/fulltext/micro/155/9/2818.pdf?expires=1468919235&id=id&accname=guest&checksum=2CEA64BA8195145BE72C98BB20076628) “zmpB”; under setting [11], “cps”; (Proteus mirabilis, ref http://www.ncbi.nlm.nih.gov/pmc/articles/PMC517467/pdf/0713-04.pdf) “zapA”.

As to “beta-defensin-1 (DHYNCVSSGGQCLYSACPIFTKIQGTCYRGKAKCCK; ends and bridges not checked; cysteine pairing not given here; UniProt P60022 33-68, looked up)”, the “Gene that modulates bacterial susceptibility to the AMP” value was “pla”.

For nisin, the “Gene that modulates bacterial susceptibility to the AMP” value is, setting by setting: under setting [1], “dltA (dlt operon)”; under setting [8], “apsS”.

As to “human beta-defensin 1 (DHYNCVSSGGQCLYSACPIFTKIQGTCYRGKAKCCK; ends and bridges not checked; cysteine pairing not given here; UniProt P60022 33-68, looked up)”, under setting [12], the “Gene that modulates bacterial susceptibility to the AMP” value is on record as “acrB”.

Take Human neutrophil peptide-1: the “Gene that modulates bacterial susceptibility to the AMP” value under setting [11] is listed as “cps”.

Human alfa-defensin1: the “Gene that modulates bacterial susceptibility to the AMP” value under setting [1] is recorded as “dltA (dlt operon)”.

In the case of “Epidermin (IASKFICTPGCAKTGSFNSYCC; also: lantibiotic, thioether rings, places not given here; UniProt P08136 31-52, looked up)”, the “Gene that modulates bacterial susceptibility to the AMP” value (Staphylococcus epidermidis, ref http://jb.asm.org/content/178/2/531.full.pdf, https://www.ncbi.nlm.nih.gov/pmc/articles/PMC4239024/) is “epiE, epiF, epiG”.

For “dermcidin (SSLLEKGLDGAKKAVGGLGKLGKDAVEDLESVGKGAVHDVKDVLDSV; DCD-1; UniProt P81605 63-109, looked up)”, under setting [8], the “Gene that modulates bacterial susceptibility to the AMP” value was “apsS”.

For the compound “human defensin (human beta-defensin)-1 (DHYNCVSSGGQCLYSACPIFTKIQGTCYRGKAKCCK; ends and bridges not checked; cysteine pairing not given here; UniProt P60022 33-68, looked up)”, the “Gene that modulates bacterial susceptibility to the AMP” value under setting [9] is recorded as “yejA”.

In the case of human beta-defensin 2, the “Gene that modulates bacterial susceptibility to the AMP” value runs as follows: under setting [12], “acrB”; under setting [7], “hemB”.
